Measurements: patent US4366148A, “Use of somatostatin in the prevention and cure of vascular, membrane, or organ lesions” (Brigham and Women's Hospital, priority 1981, dated 1982)
Numbered stars: 1 amine (or outer) side, 2 acyl side, 3 side chain; on linkers, the order of the positions; unused ones are H or OH. Bridge positions count the residues as written; N and C are the ends. Square brackets hold non-standard residues; d marks the D form. Peptide text beside a SMILES is read from it. Trp(2-yl) = O=C([C@H](Cc1c([*:3])[nH]c2ccccc12)N[*:1])[*:2]; Leu(4R-OH,5-OH) = C[C@](O)(CO)C[C@H](N)C(=O)O; cisHyp = O=C(O)[C@@H]1C[C@H](O)CN1

How the values were obtained:
[1] = system: rats given phalloidin; test: Toxicity of phalloidin: hemorrhagic liver lesions and mortality after pretreatment; assay type: in vivo, Sprague-Dawley rat; conditions: for Hepatic lesions (Scale: 0-3) / Mortality (%): pretreatment before phalloidin 0.12 mg/100 g i.p.; for Hepatic lesions (Scale: 0-3): 0=normal, 3=enlargement and uniform hemorrhage of whole liver; for Mortality (%): observed up to 24 hr; for protective effect against phalloidin toxicity (lesions, mortality), in words: rats given phalloidin 0.12 mg/100 g i.p.
Procedure: In the present studies, Sprague-Dawley rats with an initial body weight of about 200 g had free access to Purina lab chow and tap water. Each control and experimental group consisted of 3-5 animals; every experiment was performed at least twice and the results were pooled.
Somatostatin (250 μg in 1 ml of protamine sulfate and ZnCl2 suspension) was injected s.c. 30 min before and 30 min after the administration of phalloidin (0.12 mg/100 g i.p.). In addition, 10 min before the toxin, another dose of 250 μg of somatostatin in 1 ml of distilled water was given i.p. Other groups of rats also received the sulfhydryl blocker N-ethylmaleimide (alone or in combination with somatostatin), 2 mg/100 g s.c. 20 min before and 40 min after phalloidin. A --SH free agalogue of somatostatin was used instead of the regular somatostatin in the same dose and at the same time in some experiments. This --SH free analogus was Di-S-tBu-Somatostatin, in which the hydrogens of the --SH groups (cystein) were replaced with t-butyl groups. […] The hemorrhagic liver lesions were evaluated on a scale of 0-3, where 0=normal, 1=multifocal (1-5 mm) hemorrhages, 2=large hemorrhagic areas entirely involving one lobe (usually the left and/or medium), 3=enlargement and uniform hemorrhage involving the whole liver.

[2] = system: experimentally-induced pancreatitis; conditions: in vivo; cited from earlier work
[3] = system: rats given phalloidin; test: Model study: phalloidin intoxication of rats, mortality, liver weight, histology; assay type: in vivo, rat; conditions: for liver histology (light microscopy): phalloidin-intoxicated rats, with or without somatostatin
Procedure: This toxin kills rats within about 4 hours after intraperitoneal injection. Rats injected with phalloidin show a massive increase in liver size accompanied by hemorrhage. In a control group of rats given phalloidin but no somatostatin, 22 or 24 rats died within 2-4 hours. […] In the test group of 26 animals that were treated with both phalloidin and somatostatin, only 8 rats died. Furthermore, only a 30% average increase in liver weight was found in 10 animals treated with somatostatin and phalloidin and sacrificed four hours after intoxication.

[4] = system: cysteamine-induced duodenal ulcer; conditions: pretreatment with exogenous somatostatin; cited from earlier work
[5] = system: hepatic blood vessels of rats given phalloidin; test: Hepatic uptake of Evans blue after phalloidin (vascular and hepatic membrane lesions); assay type: in vivo, Sprague-Dawley rat; conditions: for Evans blue (μg/g liver): Evans blue 1 mg/100 g i.v. 15 min before autopsy, somatostatin 250 μg s.c. 30 and 10 min before phalloidin; for hepatic uptake of Evans blue, in words: rats given phalloidin with or without somatostatin
Procedure: (§1) In the biochemical experiments, the animals were also injected with Evans blue 15 min before autopsy. At autopsy the portal vein was perfused in situ with 20 ml of saline to remove blood from hepatic vasculature. […] In the morphologic experiments, groups of rats were also injected with colloidal carbon (India ink, 0.1 mg/100 g i.v.) 15 min before autopsy. At that time pieces of liver were processed for subsequent light or electron microscopic studies. […] In rats given phalloidin, carbon labeling of sinusoidal macrophages was decreased in the centrilobular areas, while early deposits of carbon were seen along the sinusoidal walls in the periportal regions. […] As opposed to controls, carbon particles were also seen beyond endothelial cells and in Disse space soon after phalloidin injection. Subsequently, vacuolation of hepatocytes and increased amount of extravascular plasma-like material were noticed.
In all of the experiments, female or male Sprague-Dawley rats (150-200 g) were used. The animals were given free access to Purina lab chow and tap water. Each group consisted of at least 3-4 rats; every experiment was repeated at least twice and the results were pooled.
Control animals were injected with normal saline 30 min prior to sacrifice and autopsy. Animals treated with phalloidin alone were injected i.p. with 0.12 mg/100 g body weight 15 min, 30 min, or 60 min before sacrifice and autopsy. Animals treated with both phalloidin and somatostatin received phalloidin as above in addition to 250 μg s.c. somatostatin at 30 and 10 minutes before the phalloidin injection. The first somatostatin injection was dissolved in 1 ml of solution consisting of 0.5 ml of 0.1% protamine sulfate and 0.5 ml of ZnCl2, 250-260 μg/ml. The second somatostatin injection was given in normal saline. In addition, rats of all groups were given Evans blue, 1 mg/100 g i.v., 15 min before sacrifice and autopsy. Livers were prefused with 20 ml of saline in situ through the protal vein to remove intravascular dye prior to measuring dye uptake by the liver tissue.
A one gram sample from the left lobe was measured spectrophotometrically to determine the uptake of Evans blue dye in μg/g liver tissue.

[6] = system: liver of rats given phalloidin; test: Morphologic experiments: colloidal carbon (India ink) labeling of liver, light and electron microscopy; assay type: in vivo, rat
Procedure: In both cases, rats were given saline (control), phalloidin alone, or phalloidin and somatostatin. Somatostatin was given in subcutaneous injections in a solution of protamine sulfate and zinc chloride in order to prolong its effectiveness, or in normal saline.
as §1

[7] = system: adrenal and lung lesions; conditions: in vivo; cited from earlier work
[8] = 15 min after phalloidin 0.12 mg/100 g i.p.
[9] = 30 min after phalloidin 0.12 mg/100 g i.p.
[10] = 60 min after phalloidin 0.12 mg/100 g i.p.

CCN1C(=O)C=CC1=O [N--Ethylmaleimide (N--EM), N-ethylmaleimide]
Hepatic lesions (Scale: 0-3) [1]: 2.3 ± 0.2 | Mortality (%) [1]: 90% | protective effect against phalloidin toxicity (lesions, mortality), in words ([1]; listed as N-ethylmaleimide): counteracted the protective action of regular somatostatin | protective effect against phalloidin toxicity (lesions, mortality), in words ([1]; listed as N-ethylmaleimide (N-EM)): counteracted the beneficial effect of somatostatin

Di-S-tBu-Somatostatin [di-S--tBu-Somatostatin]
Hepatic lesions (Scale: 0-3) [1]: 2.7 ± 0.2 | Mortality (%) [1]: 92% | protective effect against phalloidin toxicity (lesions, mortality), in words ([1]; listed as somatostatin analogue without thiol groups): inactive | protective effect against phalloidin toxicity (lesions, mortality), in words ([1]; listed as sulfhydryl-free derivative of somatostatin): without effect

Somatostatin
effect on experimentally-induced pancreatitis [2]: beneficial effect | average increase in liver weight, somatostatin and phalloidin ([3]; 10 animals sacrificed four hours after intoxication): 30% | liver histology (light microscopy) [3]: only mild vacuolization of hepatocytes and slight congestion | rats died, phalloidin and somatostatin ([3]; test group of 26 animals treated with both phalloidin and somatostatin): 8 rats | Hepatic lesions (Scale: 0-3) [1]: 0.7 ± 0.2 | Mortality (%) [1]: 20% | protective effect against phalloidin toxicity (lesions, mortality), in words [1]: significantly diminished | cysteamine-induced duodenal ulcer [4]: prevents | gastric acid output [4]: minimal inhibition | Evans blue (μg/g liver) [5, 8]: 7.17 ± 0.64 μg/g liver | Evans blue (μg/g liver) [5, 9]: 16.93 ± 4.76 μg/g liver | Evans blue (μg/g liver) [5, 10]: 15.50 ± 4.65 μg/g liver | hepatic uptake of Evans blue, in words [5]: virtually abolished this enhanced uptake | hepatic uptake of Evans blue, in words ([5]; listed as somatostatin): prevented or significantly decreased | distribution of India ink / carbon labeling of sinusoidal walls, light microscopy ([6]; colloidal carbon 0.1 mg/100 g i.v. 15 min before autopsy, after phalloidin): virtually abolished the carbon labeling of sinusoidal walls | electron microscopic changes (endothelial breakdown, extravascular carbon, vacuolation of hepatocytes) ([6]; livers of rats given somatostatin and phalloidin): markedly diminished or absent | effect on adrenal and lung lesions [7]: beneficial effect

C[C@@H]1NC(=O)[C@H](C[C@@](C)(O)CO)NC(=O)[C@@H]2Cc3c([nH]c4ccccc34)SC[C@H](NC(=O)[C@@H]([C@H](C)O)NC1=O)C(=O)N1C[C@@H](O)C[C@H]1C(=O)N[C@@H](C)C(=O)N2 [Phalloidin, phalloidin] (cyclo(A[dT]C[cisHyp]A[Trp(2-yl)][Leu(4R-OH,5-OH)]); thioether 3-6)
time within which the toxin kills rats ([3]; after intraperitoneal injection): ≤ 4 h | average increase in liver weight, phalloidin alone ([3]; autopsy of rats that died after phalloidin alone): 70% | rats died, phalloidin but no somatostatin ([3]; control group of 24 rats given phalloidin alone): 22 rats | time within which control rats died ([3]; control group, phalloidin but no somatostatin): 2 to 4 h | liver histology (light microscopy) [3]: vacuolization of hepatocytes, congestion, and hemorrhagic necrosis | Evans blue (μg/g liver) [5, 8]: 11.21 ± 2.40 μg/g liver | Evans blue (μg/g liver) [5, 9]: 28.50 ± 4.67 μg/g liver | Evans blue (μg/g liver) [5, 10]: 51.08 ± 13.56 μg/g liver | hepatic uptake of Evans blue, in words [5]: time dependent increase
